Assay results from patent US20080269053A1, “Amino Acid Compositions and Methods of Using as Fertilizer” (priority 2007, published 2008).

Experiments:
Ultra-Dwarf Bermudagrass = experiment: Turfgrass quality rating, Ultra-Dwarf Bermudagrass golf greens; type: in vivo, Cynodon spp.; settings: normal 0.125 lb nitrogen/week rate
Text: Ultra-dwarf bermudagrass is typically mown at ⅛ inch or lower and fertilized on a weekly basis which is termed “spoon feeding”. Lysine HCl, liquid lysine, Milogranite and urea were applied under substantially the same conditions as described in Example 1. Overall turf quality was rated weekly using a visual scale of 1-9 with 9 representing perfect turf. Ratings higher than 6.0 are considered acceptable while any rating below 6.0 is unacceptable.

Creeping bentgrass [1] = experiment: Turfgrass quality rating, creeping bentgrass greens; type: in vivo, Agrostis; settings: creeping bentgrass greens, 0.063, 0.125 and 0.25 lbs nitrogen/1000 sq ft bi-weekly
Method: (§1) Creeping bentgrass is a major choice for fairways, golf greens and tees in the cool-temperate zone. It has the ability to withstand close mowing and is very “aggressive” allowing for quick recovery from injuries. It was fertilized in greens at half, full and […] rate of application (0.063, 0.125 and 0.25 lbs nitrogen/1000 sq ft) on a bi-weekly basis. Turfgrass quality and toxicity were measured on a 1-9 visual basis, with 9 representing the highest quality turf or the most injury respectively. Fairways toxicity ratings and turfgrass quality ratings are shown in FIGS. 12 and 13, respectively.

Creeping bentgrass [2] = experiment: Phytotoxicity rating, creeping bentgrass greens; type: in vivo, Agrostis; settings: bi-weekly application
Method: as §1

Bermuda grass [3] = experiment: Burn after true foliar application, Bermuda grass fairways; type: in vivo, Cynodon spp.
Text: (§2) True foliar applications were studied with Tall Fescue grass. Normal foliar rates of 0.5, 1.0 and 3.0 lb nitrogen per 1000 sq ft were used with water volumes in the range of 0.5 to 2.0 gallons per 1000 sq ft (for comparison non-foliar, normal liquid spray applications are typically more than 4.0 gallons of water per 1000 sq ft.) Results are presented in FIG. 15 for mean data taken during a 5 week period. […] However, as true application rates are ⅛ the 1× rate, burn potential for foliar applications is limited.
(§3) True foliar applications were studied with Bermuda grass in Fairways at the rates used in EXAMPLE 9. Results for mean data averaged over seven weeks for burn rate and turfgrass quality are presented in FIGS. 17 and 18, respectively. […] Lysine HCl had 3-5% burn levels depending upon the rate of application.

St. Augustine grass = experiment: Turfgrass quality rating, St. Augustine grass fertilized monthly; type: in vivo, Stenotaphrum secundatum
Text: St. Augustine grass was fertilized monthly at rates of between 0.5 and 3.0 lbs nitrogen/1000 square feet with lysine HCL and Liquid Lysine, which were compared with inorganic, quick release/response urea and the organic industry standard Milorganite. Urea, lysine HCl, and liquid lysine were spray/liquid applied, while Milorganite was applied as a solid granular product.
Overall turf quality was rated weekly using a visual scale of 1-9 with 9 representing perfect turf. Ratings higher than 6.0 are considered acceptable, while any rating below 6.0 is unacceptable.

Creeping bentgrass [4] = experiment: Turfgrass quality after true foliar application, creeping bentgrass greens and tees; type: in vivo, Agrostis; settings: averaged over six weeks
Text: as §2
True foliar applications were studied with creeping bentgrass on greens and tees at the rates used in Example 9.

Bermuda grass [5] = experiment: Turfgrass quality after true foliar application, Bermuda grass fairways; type: in vivo, Cynodon spp.; settings: mean over seven weeks
Text: as §2, §3

Kentucky blue grass = experiment: Turfgrass quality rating, Kentucky blue grass lawns; type: in vivo, Poa pratensis; settings: 1.0 lb nitrogen per 1000 sq ft per month
Method: Kentucky blue grass is often used as a turfgrass species in the cool, temperature zone as a blend of varieties or within specialized “mixes” created for various geographical locations. In this embodiment, Kentucky blue grass was fertilized under a normal application rate of 1.0 lb nitrogen per 1000 sq ft per month in high quality, high maintenance lawns. Turfgrass quality and toxicity were measured on a 1-9 visual basis with 9 representing the highest quality turf or the most injury, respectively.

Creeping bentgrass [6] = experiment: Phytotoxicity rating, creeping bentgrass fairways; type: in vivo, Agrostis
Text: Creeping bentgrass is a major choice for fairways, golf greens and tees in the cool-temperate zone. It has the ability to withstand close mowing and is very “aggressive” which allows for quick recovery from injuries. Creeping bentgrass was fertilized in Fairways substantially the same as described in example 1 at three different rates: half, full and 3× normal rates (0.5, 1.0 and 3.0 lbs nitrogen/1000/month) applied on a monthly basis. Turfgrass quality ratings were taken every month from June through November along with “color” and “phytotoxicity” ratings. Turfgrass quality and toxicity were measured on a 1-9 visual basis with 9 representing the highest quality turf or most injury/burn to the turfgrass. Fairways toxicity ratings and turfgrass quality ratings are shown in FIGS. 10 and 11, respectively. The most crucial months with regard to fertilizer application toxicity are the mid-summer months of July and August due to hotter and more humid conditions which typically amplify any potential for fertilizer “burn” injury.

Solubility in water = type: physicochemical; settings: 25° C., read-out: solubility in H2O
Bermudagrass = experiment: Turfgrass quality rating, Bermudagrass in golf course fairway conditions; type: in vivo, Cynodon spp.; settings: monthly 0.5-3.0 lbs nitrogen/1000 sq ft
Method: (§4) Bermudagrass was grown and maintained in golf course fairway conditions. The bermudagrass was mown at a ½ inch height of cut and fertilized monthly between 0.5 and 3.0 lbs nitrogen per 1000 square feet. Lysine HCL and liquid lysine in aqueous solutions were compared with inorganic, quick release/response urea and the organic industry standard Milorganite. Urea, lysine HCl and liquid lysine were spray/liquid applied, while Milorganite was applied as a solid granular product.
Overall turf quality was rated weekly using a visual scale of 1-9 with 9 representing perfect turf (rarely attained, if ever). Ratings higher than 6.0 are considered acceptable while any rating below 6.0 is considered unacceptable. […] All fertilizers responded with acceptable turf ratings at all application rates, but lysine HCL trended better.
as §4, with “HCl applied as a solid granular was” for “HCL and liquid lysine in aqueous solutions were”, “Urea was” for “Urea, lysine HCl and liquid lysine were”
Lysine HCL was applied as a solid granular to compare with spray applied lysine HCL and liquid lysine. […]

SMILES | overall turf quality performance (Ultra-Dwarf Bermudagrass) | turfgrass quality rating (Creeping bentgrass [1]) | toxicity rating, visual 1-9 (Creeping bentgrass [2]; June and July) | burn level (Bermuda grass [3]; depending upon rate of application, mean over seven weeks) | burn potential (Bermuda grass [3]; turfgrasses recover quickly) | overall turfgrass quality and residual activity (St. Augustine grass; half-rate of 0.5 lb nitrogen, ratings higher than 6.0 acceptable) | overall turfgrass quality (visual scale 1-9) (St. Augustine grass; monthly 0.5-3.0 lbs nitrogen/1000 sq ft, spray applied, growing season, versus urea and Milorganite) | overall turfgrass quality rating (St. Augustine grass; standard 1.0 lb nitrogen rate, compared to urea and milorganite) | turfgrass quality rating (Creeping bentgrass [4]) | turfgrass quality rating (Bermuda grass [5]) | turfgrass quality (Kentucky blue grass) | phytotoxicity (injury) rating, visual 1-9 (Creeping bentgrass [6]; July) | solubility (Solubility in water) [mg/mL] | overall turf quality (visual scale 1-9) (Bermudagrass; applied as solid granular) | total seasonal turfgrass quality (visual scale 1-9) (Bermudagrass; aqueous spray applied) | toxicity rating, visual 1-9 (Creeping bentgrass [2]; August) | phytotoxicity (injury) rating, visual 1-9 (Creeping bentgrass [6]; August)
Cl.NCCCC[C@H](N)C(=O)O [lysine HCl, lysine monohydrochloride] | statistically the same as that of urea | slightly better than the blended synthetic products and Milogranite | Slight and insignificant levels of toxicity | 3-5% | high burn potential | acceptable overall turfgrass quality and residual activity | trended better than urea and milorganite | noticeably higher | statistically equal qualities as Coron | better than Coron and control plots | marginally better than urea | insignificant level of injury | 500 to 600 | as effective as or more effective than Milorganite and urea | seasonally better turfgrass quality at all rates tested compared to urea and milorganite |  | 
NC(N)=O [urea, reference compound] |  |  |  |  |  |  |  |  |  |  |  |  |  |  |  | significantly higher toxicity levels | significantly more injury than liquid lysine and lysine HCl
